Results: patent publication US5663165A, “Hypolipidaemic benzothiazepine compounds” (Glaxo Wellcome Inc., priority 1992, dated 1997)

Tested on: sodium-dependent 3H taurocholate uptake in rat distal ileal brush border membrane vesicles
Assay: In vitro inhibition of bile acid uptake
Assay type: biochemical
Conditions: 10 μM 3H taurocholate, 30 seconds at 24° C., active (sodium-dependent) uptake vs control
Description: In vitro inhibition of bile acid uptake
Freshly prepared rat distal ileal brush border membrane vesicles (about […] vesicle protein) were incubated for 30 seconds at 24° C. in an incubation mixture comprising 10 μM ^3 H taurocholate, 100 mM NaCl (or KCl) and 80 mM mannitol in 20 mM Hepes Tris pH 7.4. Each test compound was dissolved in ethanol (or water) and then diluted with incubation mixture to an ethanol concentration of not more than 1% v/v. The incubation was terminated by rapid dilution and filtration and the filter washed with an ice-cold isotonic sodium-free buffer.
The uptake of ^3 H taurocholate was measured by the radioactivity remaining on the filter and converted to pmoles/mg vesicle protein. The active, ie sodium-dependent, uptake was obtained by subtracting the passive uptake measured in 100 mM KCl from the total uptake measured in 100 mM NaCl. The active uptake for each test compound was compared with a control active uptake and the results expressed at % inhibition of bile acid uptake.

SMILES: CCCC[C@]1(CC)CS(=O)(=O)c2ccccc2[C@@H](c2ccccc2)N1 [Synthetic Example 1, (-)-(RR)-3-butyl-3-ethyl-2,3,4,5-tetrahydro-5-phenyl-1,4-benzothiazepine-1,1-dioxide]
- % inhibition of bile acid uptake (0.3 μM test compound): 55%
- % inhibition of bile acid uptake (1 μM test compound): 69%
- % inhibition of bile acid uptake (3 μM test compound): 85%
- % inhibition of bile acid uptake (10 μM test compound): 96%
